# Results reported in patent publication US20040133938A1, “Use of lipoic acid in plant culture media” (priority 2002, published 2004).
# System: MicroTom cotyledon explants
# Experiment: Tissue browning severity on Agrobacterium-inoculated MicroTom cotyledon explants
# Type: cell-based, Lycopersicon esculentum
# Conditions: after 5 days on selection media
# Method: This example describes the use of lipoic acid in an Agrobacterium-based tomato transformation process. MicroTom (a cultivar of tomato species: Lycopersicon esculentum) seeds from Tomato Growers (Ball Seed Co., West Chicago, Ill. USA) were surface-sterilized by first soaking for 10 min in sterile deionized water, removing the water, and then adding enough 70% ethanol to immerse the seeds for 1 min while stirring vigorously and then aspirating the ethanol. The seeds were rinsed 2× with sterile deionized water and then soaked in 25% Chlorox with 1-2 drops of Tween 20 for 10 min while stirring frequently. The seeds were rinsed 3× with sterile deionized water. The seeds were germinated in phytatrays containing Davis Germination medium (4.3 g/L MS salts, 2 ml/L Gamborg's B-5 500× salts, 20 g/L sucrose and 10 g/L agar) (approximately 120 seeds/container), and the phytatrays were wrapped with aluminum foil. The phytatray cultures were maintained at 28° C. under the dark for 5 days. After 5 days, the phytatray cultures were unwrapped and grown at 24° C. under a 16 h photoperiod for about 44 h.
# Cotyledon explants were isolated from seedlings 7 days after sowing seeds on Davis Germination medium. Cotyledon explants were prepared by bathing them in 6 mL of TXD liquid medium (4.3 g/L MS salts, 2 mL/L Gamborg's B-5 500× salts, 4 mg/L pCPA (p-chlorophenoxyactic acid), 0.005 mg/L kinetin, and 30 g/L sucrose) to prevent desiccation and trimming them at both ends using a #15 feather blade. Immediately after the trimming, the cotyledon explants were gently placed on “feeder plates” containing UC2PC medium (2.2 g/L MS salts, 2.2 mL/L, Gamborg's B-5 500× salts, 0.2 mg/L 2,4-D, 4 mg/L pCPA, 0.1 mg/L kinetin, 30 g/L sucrose, 0.2 g/L potassium phosphate, 10 g/L agar, 8 mL/L acetosyringone (4.91 mg/mL), and 4 mL galacturonic acid (53.05 mg/mL)). The “feeder plates” are made by overlaying 2 mL of tobacco suspension cells and a sterile Whatman filter on the plates containing UC2PC medium. The cotyledon explants were gently poked with a sharp forceps (ASIM5311, Stainless French, made in Switzerland). Usually six to ten pokes were made per explant depending the size of cotyledons. Right after poking, the cotyledons were inoculated with Agrobacterium containing pMON15715 (FIG. 1) by adding 3 mL of the adjusted Agrobacterium solution on top of the cotyledons. The plates were incubated for 10 min at room temperature, and the Agrobacterium solution was aspirated with a sterile pipette. The cotyledons were then co-cultured for 2 days at 23-24° C. under a 16-h photoperiod. The co-culture plates were placed in plastic bags to keep the humidity, which is preferable for MicroTom growth.
# […] Three to four weeks after the induction stage, the cotyledons formed buds or shoots. Cotyledons with buds or shoots were separated by individual event and transferred to, shoot elongation medium E2 (SI-2 medium without IAA), supplemented with 100 mg/L kanamycin for two to four weeks. All culture plates were placed in a culture box, placed inside a plastic bag, and cultured at 23-24° C. under a 16 h photoperiod.
# Evaluation of plants after transformation with pMON15715 (FIG. 1) as described above was carried out in multiple ways. About five days after selection, tissue browning severity within and around the poked region on cotyledon explants was measured under a dissecting microscope. Low tissue browning severity was determined as less than 30% of the pokes made on each cotyledon explant that produced browning tissue and the high tissue browning severity was determined as more than 30% of the pokes made on each explant that generated browning tissue 5 days after culturing on selection medium. All the treatments of lipoic acid at concentrations of 5, 10, 50 and 100 μM had 1.5- to 1.8-fold increases of the percentage of explants scored as low tissue browning severity, respectively, compared to the treatment without lipoic acid (Table 1).
smiles,measurement,setting,value
"O=C(O)CCCCC1CCSS1 (centres unmarked) [lipoic acid, 1,2-dithiolane-3-pentanoic acid]",% high browning,5 μM lipoic acid,34.9%
same,% low browning,5 μM lipoic acid,65.1%
same,% high browning,10 μM lipoic acid,33.9%
same,% low browning,10 μM lipoic acid,66.1%
same,% high browning,50 μM lipoic acid,34.4%
same,% low browning,50 μM lipoic acid,65.6%
same,% high browning,100 μM lipoic acid,46%
same,% low browning,100 μM lipoic acid,54%
